Eight molecules from US20020045591A1, “Methods and therapeutic compositions for treating cancer” (priority 1998, published 2002) can be followed below.

Non-standard residues stand in square brackets, D forms with d. Residues, ends and D or L forms follow the SMILES beside them. No end group written: not given here. *: point of attachment. Nle = CCCC[C@H](N)C(=O)O; Cbz = O=C(OCc1ccccc1)*

Experiment [1] relates to β-catenin. The experiment can be described thus: β-catenin Western blot in Balb/C 3T3 cells treated with ubiquitin-proteasome inhibitors. Format: cell-based, mouse. Particulars: treated 4 hours, FIG. 17A. The method, then:
(§1) Lactacystin A (dissolved in water at 0.4 mg/ml was used at a final concentration of 4 μg/ml) and MG-132 (used at 10 or 20 μM) were purchased from Calbiochem (La Jolla, Calif.).
Polyacrylamide Gel Electrophoresis and Immunoblotting: Equal amounts of total cell protein were separated by SDS PAGE, electro-transferred to nitrocellulose and incubated with monoclonal antibodies. The antigens were visualized by the enhanced chemiluminescence (Amersham, Buckinghampshire, U.K). In some experiments, cells were fractionated into Triton X-100-soluble and -insoluble fractions. Briefly, cells cultured on 35 mm dishes were incubated in 0.5 ml buffer containing 50 mM MES, pH 6.8, 2.5 mM EGTA, 5 mM MgCl2 and 0.5% Triton-X-100, at room temperature for 3 minutes. The Triton X-100-soluble fraction was removed, and the insoluble fraction was scraped into 0.5 ml of the same buffer. Equal volumes of the two fractions were analyzed by SDS PAGE followed by immunoblotting with the various antibodies.
In general terms: Immunoblotting shows a protein as a band on a membrane.

Experiment [2] concerns β-catenin. The experiment in a line: β-catenin Western blot in KTCTL60 cells treated with proteasome inhibitor. The class given is cell-based, human. Particulars: 10 and 20 μM, FIG. 17B. As to the method: (§2) Cell Culture and Transfections: Canine kidney epithelial cells MDCK, human fibrosarcoma HT1080, 293-T human embryonic kidney cells, Balb/C mouse 3T3 and human colon carcinoma SW480 cell lines were cultured in Dulbecco's modified Eagle's medium supplemented with 10% calf serum (Gibco, Grand Island, N.Y.) at 37° C. in the presence of 7% CO2. The human renal carcinoma cell line KTCTL60 was grown in RPMI medium and 10% calf serum. Cells were transiently transfected with the cDNA constructs described below, using Ca^2+-phosphate or lipofectamine (Gibco) and the expression of the transgene was assessed between 24 and 48 hours after transfection. In some experiments, the expression of the stably transfected NH2 terminus-deleted β-catenin (Δ57) was enhanced in HT1080 cells by overnight treatment with 2 mM sodium butyrate.
as §1
(§3) Polyacrylamide Gel Electrophoresis and Immunoblotting: Equal amounts of total cell protein were separated by SDS PAGE, electro-transferred to nitrocellulose and incubated with monoclonal antibodies. […] Equal volumes of the two fractions were analyzed by SDS PAGE followed by immunoblotting with the various antibodies.

For another experiment, the system named is plakoglobin. The experiment in a line: Plakoglobin Western blot in KTCTL60-PG cells treated with proteasome inhibitor. The class given is cell-based, human. Particulars: 10 and 20 μM, FIG. 17B. The method, then:
as §2, §1, §3

In another experiment the test system is HT1080 cells. The experiment in a line: Butyrate induction in HT1080 cells stably expressing ΔN57 β-catenin. Format: cell-based, human. The method, then:
as §2, with “In some experiments, the expression of the stably transfected NH2 terminus-deleted β-catenin (Δ57) was enhanced in HT1080 cells by overnight treatment with 2 mM sodium butyrate.” left out
Immunofluorescence Microscopy: Cells cultured on glass coverslips were fixed with 3.7% paraformaldehyde in PBS and permeabilized with 0.5% Triton X-100. […] Images of the fluorescent cells were recorded with a cooled, scientific grade CCD camera (Photometrics, Tucson, Ariz.). Integrated fluorescent intensities in transfected and nontransfected cells were determined, after the background was subtracted.
as §3

Experiment [3] has as its target T1, β-catenin (Cricetulus griseus, UniProt G3H996).
T1 construct: resulting from the stabilization of the endogenous β-catenin by the transfected cadherin derivatives; endogenous in cells; host or cells: CHO cells, stably or transiently transfected with cadherin derivatives only
T1 sequence (G3H996 1-781): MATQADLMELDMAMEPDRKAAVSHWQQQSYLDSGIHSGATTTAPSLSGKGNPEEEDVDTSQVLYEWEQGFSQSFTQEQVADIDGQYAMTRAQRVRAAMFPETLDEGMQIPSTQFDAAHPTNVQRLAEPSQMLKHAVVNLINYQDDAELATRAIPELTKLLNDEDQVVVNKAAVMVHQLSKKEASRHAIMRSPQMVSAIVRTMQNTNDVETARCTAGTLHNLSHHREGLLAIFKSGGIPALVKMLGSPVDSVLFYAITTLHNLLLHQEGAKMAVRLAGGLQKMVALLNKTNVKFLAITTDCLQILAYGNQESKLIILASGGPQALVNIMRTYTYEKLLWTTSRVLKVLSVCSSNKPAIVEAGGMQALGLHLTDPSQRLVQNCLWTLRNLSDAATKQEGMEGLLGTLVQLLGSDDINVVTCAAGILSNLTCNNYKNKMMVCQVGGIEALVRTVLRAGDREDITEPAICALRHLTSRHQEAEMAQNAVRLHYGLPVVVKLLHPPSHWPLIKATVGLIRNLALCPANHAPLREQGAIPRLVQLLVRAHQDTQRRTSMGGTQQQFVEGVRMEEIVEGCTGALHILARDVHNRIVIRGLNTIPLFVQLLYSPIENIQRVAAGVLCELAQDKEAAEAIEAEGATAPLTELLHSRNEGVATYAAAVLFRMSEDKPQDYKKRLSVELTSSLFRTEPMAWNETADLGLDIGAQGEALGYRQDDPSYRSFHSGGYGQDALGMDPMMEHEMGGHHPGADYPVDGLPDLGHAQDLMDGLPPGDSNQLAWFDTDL
The experiment can be described thus: β-catenin level in CHO cells by Western blot. Format: cell-based. As to conditions: CHO cells transiently transfected with GFP-cadherin constructs, FIG. 7B. The method, then:
(§4) Cell culture and transfections: CHO and SW480 human colon carcinoma cells were cultured in Dulbecco's modified Eagle's medium containing 10% fetal calf serum in an 8% CO2 incubator at 37° C. Transfections were performed using Lipofectamine (Gibco, BRL, USA) according to the manufacturer's instructions. Stably transfected CHO clones were generated by co-transfection with a plasmid encoding the puromycin resistance gene. Two days after transfection, cells were replated in the presence of 10 μg/ml puromycin (Sigma, Holon, Israel). Stable clones were isolated 2 weeks later and tested for the expression of the transgene by Western blot analysis.
Immunoblotting and immunoprecipitation: The following antibodies were used: polyclonal pan-cadherin or monoclonal anti cadherin (CH-19) and polyclonal anti β-catenin antibodies were from Sigma (Holon, Israel). Monoclonal anti β-catenin, 5H10 (from M. Wheelock), anti IL2Rα (from UBI), anti flag (M2, from IBI), anti HA (clone 12CA5, from Boehringer Mannheim, Germany), anti GFP (polyclonal, from Clontech, Palo Alto, Calif.), anti LEF-1 (polyclonal, kindly provided by Dr. R. Grosschedl). Secondary antibodies for Western blotting were goat anti rabbit or anti mouse conjugated to HRP (Amersham, Buckinghampshire, UK), and for immunofluorescence analysis the secondary antibodies were FITC-goat anti mouse (Cappel, USA) or rhodamine-anti rabbit antibodies (from Jackson Immuno-Research, West Grove, Pa.). Cells were harvested in Laemmli's sample buffer and equal amounts of total cell protein from the different clones, or from transient transfections, were separated by SDS-PAGE, electrotransferred to nitrocellulose and incubated with the different antibodies. For immunoprecipitation, cells were harvested in IP buffer (20 mM Tris pH 8.0, 1% Triton X-100, 140 mM NaCl, 10% glycerol, 1 mM EGTA, 1.5 mM MgCl2, 1 mM DTT, 1 mM sodium vanadate, and 50 μg/ml PMSF). Equal amounts (500-700 μg) of cell protein were incubated with 1 μl of the relevant antibody for 2 hours at 4° C., followed by incubation with 20 μl of protein A+G/agarose beads (Santa Cruz Biotechnologies, Santa Cruz, Calif.) for an additional 2 hours at 4° C. The agarose beads were washed with 20 mM Tris pH 8.0, 150 mM NaCl, and 0.5% NP-40, and the immune complexes recovered by boiling in Laemmli's sample buffer and resolved by SDS-PAGE.

Experiment [4] concerns β-catenin-mediated transactivation. The experiment in a line: TOPFLASH luciferase transactivation in SW480 cells (Example 1). The class given is cell-based, human. As to conditions: SW480 cells, GFP-fused cadherin tail constructs, FIG. 7C. As to the method: as §4
Transactivation assays: CHO cells were transfected with TOPFLASH or FOPFLASH vectors (van de Wetering et al., 1997, ibid) and with pCDNA3 coding for β-galactosidase to normalize for transfection efficiency. The transfection mixture also contained either β-catenin, LEF-1 or cadherin derivatives in different combinations, as indicated. SW480 cells were transfected with TOPFLASH and cadherin derivatives. After 48 hours, cells were harvested and tested for luciferase and β-galactosidase activities as follows: Cells were washed 5 times with PBS, resuspended in PM-2 buffer (33 mM NaH2PO4, 66 mM Na2HPO4, 0.1 mM MnCl2, 2 mM MgSO4, 40 mM β-mercaptoethanol) and lysed by 5 cycles of freezing and thawing. Aliquots containing equal amounts of protein were incubated with O-Nitrophenyl-β-D-galactopyranoside (ONPG) at 37° C. until a yellow color appeared. The reactions were stopped with 1 M Na2CO3 and the absorbance at 420 nm was determined. Identical aliquots were tested for luciferase activity using luciferine buffer (100 mM Tris-O-Acetate pH 7.8, 10 mM Mg-O-Acetate, 1 mM EDTA, 74 μM luciferine (Boehringer Mannheim, Germany) and 2.22 mM ATP, pH 7.0). The luciferase reaction was monitored by a TD-20e luminometer (Turner, USA) and normalized for the β-galactosidase activity.
Distribution of N-cadherin derivatives and the effect on β-catenin transactivation in SW480 cells: SW480 colon carcinoma cells express mutant APC, low levels of E-cadherin and relatively high levels of free β-catenin. These cells also display very significant β-catenin-mediated transcription after transfection with TOPFLASH (FIG. 6A, lane 1). To determine the effect of cadherin on this β-catenin-driven transactivation, each of the three N-cadherin derivatives was transfected together with TOPFLASH into SW480 cells and luciferase activity determined. […] The most efficient inhibitor of this transactivation was the cadherin tail construct (FIG. 6A, lane 4), which inhibited the reporter gene by more than 85%. Full-length N-cadherin and the IL2R/N-cadherin chimera decreased the activity of the reporter by about 70% and 50%, respectively.

`CCCC[C@@H](C=O)NC(=O)[C@H](CC(C)C)NC(=O)[C@H](CC(C)C)NC(C)=O` [ALLN, N-Acetyl-Leu-Leu-Norleucinal] (Ac-Leu-Leu-[Nle]-aldehyde): the “effect on β-catenin (Western blot)” value with β-catenin [1] is given as “appearance of higher molecular weight β-catenin forms”.

As to `CC(=O)N[C@@H](CSC(=O)[C@]1([C@@H](O)C(C)C)NC(=O)[C@H](C)[C@@H]1O)C(=O)O` [Lactacystin], the “effect on β-catenin (Western blot)” value with β-catenin [1] is on record as “appearance of higher molecular weight β-catenin forms”. For `CC(C)C[C@@H](C=O)NC(=O)[C@H](CC(C)C)NC(=O)[C@H](CC(C)C)NC(=O)OCc1ccccc1` [MG-132] (Cbz-Leu-Leu-Leu-aldehyde), in the experiment on β-catenin [2], the “effect on β-catenin content” value is reported as “dramatic elevation in β-catenin content”. For the same molecule, in the experiment with plakoglobin, the “effect on plakoglobin level” value was “moderate increase in plakoglobin”. Besides, in the experiment on β-catenin [1], the “effect on β-catenin (Western blot)” value is reported as “appearance of higher molecular weight β-catenin forms”. Take `CCCC(=O)[O-].[Na+]` [butyrate, sodium butyrate]: in the experiment with HT1080 cells (butyrate-treated, FIG. 14D), the β-catenin localization result was “dramatic translocation of β-catenin into the nucleus”. For the same molecule, the “increase in expression of the transgene (western blot)” value in the experiment on HT1080 cells (overnight 2 mM sodium butyrate, data not shown) was “about 2 fold”.

In the case of “E30: E-cadherin tail fragment, amino acids 833-862, fused to GFP”, the “stabilization of β-catenin against degradation” value (“stabilization of β-catenin” below) with β-catenin [3] was “ineffective in stabilizing β-catenin against degradation”. In experiment [4], the “inhibition of luciferase activity (LEF-1-driven transactivation)” value (“inhibition of luciferase activity” for short) is “did not affect β-catenin-mediated transactivation”.

For the molecule “E72: C-terminal 72 amino acids of E-cadherin (813-884) fused to GFP”, in the experiment with β-catenin [3], the “stabilization of β-catenin” value was “could also stabilize β-catenin”. In addition, the “inhibition of luciferase activity” value in experiment [4] was 60%. For “N30: N-cadherin tail fragment, amino acids 862-891, fused to GFP (LVFDYEGSGSTAGSLSSLNSSSSGGEQDYD; also: fused to GFP)”, the “stabilization of β-catenin” value with β-catenin [3] was “ineffective in stabilizing β-catenin against degradation”. Further, the “inhibition of luciferase activity” value in experiment [4] is recorded as “did not affect β-catenin-mediated transactivation”. As to “N71: C-terminal 71 amino acids of N-cadherin (842-912) fused to GFP”, the “stabilization of β-catenin” value with β-catenin [3] is “could also stabilize β-catenin”. Moreover, in experiment [4], the “inhibition of luciferase activity” value is 70%.
